Converted amounts (≈) assume the structure as drawn. Where two headings read alike, the source gives them in different places.
Assays:
Experiment in all cases: In vitro MIC, 2010 surveillance isolates
MRSA = format: cell-based; conditions: for Cumulative % Inhibition at MIC: N=4192
E. faecalis VS = format: cell-based; conditions: for Cumulative % Inhibition at MIC: N=2036
K. pneumoniae ESBL+ = format: cell-based, Klebsiella pneumoniae; conditions: for Cumulative % Inhibition at MIC: N=592
E. cloacae CeftazR = format: cell-based; conditions: for Cumulative % Inhibition at MIC: N=254
E. cloacae CeftazS = format: cell-based; conditions: for Cumulative % Inhibition at MIC: N=550
E. coli ESBL− = format: cell-based, Escherichia coli; conditions: for Cumulative % Inhibition at MIC: N=3376
E. faecalis VNS = format: cell-based; conditions: for Cumulative % Inhibition at MIC: N=54
A. baumanii = format: cell-based
Acinetobacter spp = format: cell-based; conditions: for range of MICs (N <10, shown instead of MIC90): N=9

CN(C)c1cc(CNCC(C)(C)C)c(O)c2c1C[C@H]1C[C@H]3[C@H](N(C)C)C(O)=C(C(N)=O)C(=O)[C@@]3(O)C(O)=C1C2=O [Compound 1, 9-[(2,2-dimethyl-propylamino)-methyl]-minocycline]
Cumulative % Inhibition at MIC (MRSA; MIC 1 μg/ml): 98.4%
Cumulative % Inhibition at MIC (MRSA; MIC 2 μg/ml): 99.8%
Cumulative % Inhibition at MIC (MRSA; MIC 4 μg/ml): 100%
Cumulative % Inhibition at MIC (MRSA; MIC ≤0.5 μg/ml): 95.4%
MIC90 (MRSA; N America, N=2508): 0.5 µg/mL (≈ 0.898 µM)
MIC90 (E. faecalis VS; Asia/Pac, N=214): 0.5 µg/mL (≈ 0.898 µM)
MIC90 (E. faecalis VS; Europe, N=669): 0.25 µg/mL (≈ 0.449 µM)
MIC90 (E. faecalis VS; L. Amer, N=290): 0.25 µg/mL (≈ 0.449 µM)
Cumulative % Inhibition at MIC (E. faecalis VS; MIC 1 μg/ml): 99.9%
Cumulative % Inhibition at MIC (E. faecalis VS; MIC 2 μg/ml): 100%
Cumulative % Inhibition at MIC (E. faecalis VS; MIC ≤0.5 μg/ml, listed as head image P00001): 99.3%
MIC90 (E. faecalis VS; N America, N=863): 0.5 µg/mL (≈ 0.898 µM)
MIC90 (K. pneumoniae ESBL+; Asia/Pac, N=124): 16 µg/mL (≈ 28.7 µM)
MIC90 (K. pneumoniae ESBL+; Europe, N=151): 8 µg/mL (≈ 14.4 µM)
MIC90 (K. pneumoniae ESBL+; L. Amer, N=209): 16 µg/mL (≈ 28.7 µM)
Cumulative % Inhibition at MIC (K. pneumoniae ESBL+; MIC 1 μg/ml): 19.3%
Cumulative % Inhibition at MIC (K. pneumoniae ESBL+; MIC 2 μg/ml): 56.8%
Cumulative % Inhibition at MIC (K. pneumoniae ESBL+; MIC 4 μg/ml): 79.6%
Cumulative % Inhibition at MIC (K. pneumoniae ESBL+; MIC 8 μg/ml): 90.2%
Cumulative % Inhibition at MIC (K. pneumoniae ESBL+; MIC 16 μg/ml): 94.8%
Cumulative % Inhibition at MIC (K. pneumoniae ESBL+; MIC ≤0.5 μg/ml, listed as head image P00010): 1.7%
Cumulative % Inhibition at MIC (K. pneumoniae ESBL+; MIC ≥32 μg/ml): 100%
MIC90 (K. pneumoniae ESBL+; N America, N=108): 16 µg/mL (≈ 28.7 µM)
MIC90 (E. cloacae CeftazR; Asia/Pac, N=63): 8 µg/mL (≈ 14.4 µM)
MIC90 (E. cloacae CeftazR; Europe, N=72): 8 µg/mL (≈ 14.4 µM)
MIC90 (E. cloacae CeftazR; L. Amer, N=42): 4 µg/mL (≈ 7.19 µM)
Cumulative % Inhibition at MIC (E. cloacae CeftazR; MIC 1 μg/ml): 7.9%
Cumulative % Inhibition at MIC (E. cloacae CeftazR; MIC 2 μg/ml): 54.3%
Cumulative % Inhibition at MIC (E. cloacae CeftazR; MIC 4 μg/ml): 81.9%
Cumulative % Inhibition at MIC (E. cloacae CeftazR; MIC 8 μg/ml): 90.2%
Cumulative % Inhibition at MIC (E. cloacae CeftazR; MIC 16 μg/ml): 94.1%
Cumulative % Inhibition at MIC (E. cloacae CeftazR; MIC ≤0.5 μg/ml, listed as head image P00015): 0.4%
Cumulative % Inhibition at MIC (E. cloacae CeftazR; MIC ≥32 μg/ml): 100%
MIC90 (E. cloacae CeftazR; N America, N=77): 16 µg/mL (≈ 28.7 µM)
MIC90 (E. cloacae CeftazS; Asia/Pac, N=100): 4 µg/mL (≈ 7.19 µM)
MIC90 (E. cloacae CeftazS; Europe, N=183): 4 µg/mL (≈ 7.19 µM)
MIC90 (E. cloacae CeftazS; L. Amer, N=57): 8 µg/mL (≈ 14.4 µM)
Cumulative % Inhibition at MIC (E. cloacae CeftazS; MIC 1 μg/ml): 15.3%
Cumulative % Inhibition at MIC (E. cloacae CeftazS; MIC 2 μg/ml): 70.5%
Cumulative % Inhibition at MIC (E. cloacae CeftazS; MIC 4 μg/ml): 93.3%
Cumulative % Inhibition at MIC (E. cloacae CeftazS; MIC 8 μg/ml): 95.6%
Cumulative % Inhibition at MIC (E. cloacae CeftazS; MIC 16 μg/ml): 97.8%
Cumulative % Inhibition at MIC (E. cloacae CeftazS; MIC ≤0.5 μg/ml, listed as head image P00014): 0.5%
Cumulative % Inhibition at MIC (E. cloacae CeftazS; MIC ≥32 μg/ml): 100%
MIC90 (E. cloacae CeftazS; N America, N=210): 4 µg/mL (≈ 7.19 µM)
MIC90 (E. coli ESBL−; Asia/Pac, N=282): 2 µg/mL (≈ 3.59 µM)
MIC90 (E. coli ESBL−; Escherichia coli, ESBL-negative E. coli, read-out: MIC90): 2 µg/mL (≈ 3.59 µM)
MIC90 (E. coli ESBL−; Europe, N=1533): 2 µg/mL (≈ 3.59 µM)
MIC90 (E. coli ESBL−; L. Amer, N=389): 2 µg/mL (≈ 3.59 µM)
Cumulative % Inhibition at MIC (E. coli ESBL−; MIC 1 μg/ml): 84.2%
Cumulative % Inhibition at MIC (E. coli ESBL−; MIC 2 μg/ml): 95.9%
Cumulative % Inhibition at MIC (E. coli ESBL−; MIC 4 μg/ml): 99.3%
Cumulative % Inhibition at MIC (E. coli ESBL−; MIC 8 μg/ml): 99.9%
Cumulative % Inhibition at MIC (E. coli ESBL−; MIC 16 μg/ml): 100%
Cumulative % Inhibition at MIC (E. coli ESBL−; MIC ≤0.5 μg/ml, listed as head image P00005): 54.2%
Cumulative % Inhibition at MIC (E. coli ESBL−; MIC ≥32 μg/ml): 100%
MIC90 (E. coli ESBL−; N America, N=1172): 2 µg/mL (≈ 3.59 µM)
range of MICs (N <10, shown instead of MIC90) (E. faecalis VNS; Asia/Pac, N=1): 0.5
range of MICs (N <10, shown instead of MIC90) (E. faecalis VNS; Europe, N=8): 0.06-0.5
range of MICs (N <10, shown instead of MIC90) (E. faecalis VNS; L. Amer, N=7): ≤0.015-0.06
Cumulative % Inhibition at MIC (E. faecalis VNS; MIC 1 μg/ml): 100%
Cumulative % Inhibition at MIC (E. faecalis VNS; MIC ≤0.5 μg/ml, listed as head image P00002): 98.1%
MIC90 (E. faecalis VNS; N America, N=38): 0.25 µg/mL (≈ 0.449 µM)
MIC90 (A. baumanii; Asia/Pac, N=275): 4 µg/mL (≈ 7.19 µM)
MIC90 (A. baumanii; Europe, N=145): 4 µg/mL (≈ 7.19 µM)
MIC90 (A. baumanii; L. Amer, N=275): 4 µg/mL (≈ 7.19 µM)
MIC90 (A. baumanii; N America, N=154): 8 µg/mL (≈ 14.4 µM)
range of MICs (N <10, shown instead of MIC90) (Acinetobacter spp; Asia/Pac): 0.06-2
MIC90 (Acinetobacter spp; Europe, N=43): 4 µg/mL (≈ 7.19 µM)
range of MICs (N <10, shown instead of MIC90) (Acinetobacter spp; L. Amer): 0.03-4
MIC90 (Acinetobacter spp; N America, N=42): 2 µg/mL (≈ 3.59 µM)
